# Reference: patent publication US12655139B2, “Isoxazolidines as RIPK1 inhibitors and use thereof” (SANOFI, priority 2020, dated 2026)
# Structures can show the parent of a compound that is named as a salt. Where two headings read alike, the source gives them in different places.
# Key:
# [1] = biological target: T1, hRIPK1 (aa 1-375) fusion protein (Homo sapiens, UniProt Q13546); test: ADP-Glo kinase assay, RIPK1 autophosphorylation; assay type: biochemical
# T1 construct: hRIPK1 (aa 1-375) fusion protein
# T1 sequence (Q13546 1-375): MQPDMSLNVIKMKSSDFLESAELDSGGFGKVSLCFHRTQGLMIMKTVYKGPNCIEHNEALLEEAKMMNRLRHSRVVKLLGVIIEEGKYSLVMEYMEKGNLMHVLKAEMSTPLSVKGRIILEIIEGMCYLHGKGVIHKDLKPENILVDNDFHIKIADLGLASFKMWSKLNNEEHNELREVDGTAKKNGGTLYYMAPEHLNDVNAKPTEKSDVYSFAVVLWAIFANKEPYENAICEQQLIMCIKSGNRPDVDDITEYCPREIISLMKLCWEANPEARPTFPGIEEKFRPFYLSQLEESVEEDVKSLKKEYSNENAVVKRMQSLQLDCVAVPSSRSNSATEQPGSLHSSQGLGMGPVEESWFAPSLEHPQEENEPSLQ
# Procedure: Evaluation of Receptor-Interacting Protein Kinase 1 Inhibition.
# The catalytic activity of RIPK1 was measured by monitoring the conversion of Adenosine triphosphate (ATP) to Adenosine diphosphate (ADP) due to autophosphorylation using an ADP-Glo kinase kit (Promega, catalog no. V9104).
# After another 240 minutes incubation at room temperature, 5 μl Promega ADP-Glo reagent I were added to quench the reaction and deplete unconsumed ATP. After an incubation period of 30 minutes, 10 μl Promega ADP-Glo detection reagent II were added resulting in conversion of ADP to ATP, which generates a light-reaction between luciferase and luciferin. Luminescence was quantified after 30 minutes with a Pherastar FS (BMG LABTECH, Ortenberg).
# The adjustment was obtained by nonlinear regression using the Levenberg Marquardt algorithm.
# [2] = test system: U937 cells; test: Cellular assay in U937 cells on cell death (necroptosis), TNFα/zVAD.fmk; assay type: cell-based
# Text: Cellular Assay in U937 Cells to Measure the Activity of RIPK1-Inhibitors on Cell Death (Necroptosis).
# Cell death was quantified in 96 well plates by determination of the amount of live cell using a CellTiter 96 AQueous reagent (Promega), a calorimetric method to measure the amount of live cells by reducing tetrazolium compound [3-(4,5-dimethylthiazol-2-yl)-5-(3-carboxymethoxyphenyl)-2-(4-sulfophenyl)-2H-tetrazolium, inner salt; MTS] into formazan. Absorbance of formazan was read at 490 nm. The inhibitory activity of the test compound was quantified in a concentration response curve (CRC) experiment. Compounds were obtained as 10 mM stock solutions and were diluted 1 to 10 volumes with DMSO to yield a 1 mM solution. From this solution 2 μl were diluted with 998 μl growth medium. 100 μl of 2 μM compound solution was further diluted sequentially with a dilution factor of 2.5 by adding 150 μl growth medium. A total of 10 concentrations were tested ranging from 10 μM to 0.26 nM or from 1 μM to 0.07 nM.
# U937 cells were cultured in RPMI1640 Glutamax and 10% heat inactivated FBS. 50 μl cell suspension containing 1×10^6 cells/ml supplemented with 50 μM zVAD.fmk (Benzyloxycarbonyl-Val-Ala-Asp (OMe) fluoromethylketone) and 100 ng/ml recombinant human TNFα were dispensed in each well of a 96-well plate. 50 μl of compound dilutions (see above) were added and the cell suspension incubated overnight (18 to 24 hours) at 37° C., 5% CO2 in a humidified atmosphere (95% rH). High (no compound) and low control (no TNFα, zVAD.fmk) were tested with 7 replicates; all compound concentrations were tested in duplicates on each experimental plate.
# CellTiter 96 Aqueous reagent was mixed (100 μl PMS (phenazine methosulfate) solution/2 ml MTS (3-(4,5-[…])-5-(3-carboxymethoxyphenyl)-2-(4-sulfophenyl)-2H-tetrazolium, inner salt) solution) and 20 μl were added per well. After 4 hours incubation at 37° C. (5% CO2 95% rH) optical density was measured at 490 nm on a microplate reader (Tecan Infinite M1000).
# The % inhibition is expressed as percentage of the maximal inhibition value obtained in the absence of TNFα/zVAD.fmc.
# [3] = Homo sapiens, U-937, Table 2, read-out: U937 IC50
# [4] = Homo sapiens, U-937, Key compound table 4, read-out: U937 IC50 (uM) Mean
SMILES,IC50 ([1]; Table 1),"IC50 ([2]; Table 2, listed as 10, read-out: U937 IC50)","IC50 [2, 3]",IC50 ([1]; Key compound table 4),"IC50 [2, 4]"
"COC(=O)c1ccnc(N2CCC(C(=O)N3OCC[C@H]3c3cncc(C#N)c3)CC2)n1 [Ex. 010, Methyl 2-[4-[(3S)-3-(5-cyano-3-pyridyl)isoxazolidine-2-carbonyl]-1-piperidyl]pyrimidine-4-carboxylate]",12 nM,0.21 µM,–,–,–
N#Cc1cncc([C@@H]2CCON2C(=O)C2CCN(c3nccc(C#N)n3)CC2)c1 [Ex. 011],24.5 nM,–,0.0126 µM,–,–
CC1(C(=O)N2OCC[C@H]2c2cncc(C#N)c2)CCN(c2nccc(C(N)=O)n2)CC1 [Ex. 019],23.5 nM,–,0.0573 µM,–,–
"COC(=O)c1ccnc(N2CCC(C)(C(=O)N3OCC[C@H]3c3cncc(C#N)c3)CC2)n1 [Ex. 020, Methyl 2-[4-[(3S)-3-(5-cyano-3-pyridyl)isoxazolidine-2-carbonyl]-4-methyl-1-piperidyl]pyrimidine-4-carboxylate]",10.7 nM,–,0.118 µM,–,–
CC1(C(=O)N2OCC[C@H]2c2cncc(C#N)c2)CCN(c2nccc(C(=O)O)n2)CC1 [Ex. 021],70.4 nM,–,> 10 µM,–,–
N#Cc1cncc([C@@H]2CCON2C(=O)C2CCN(c3cc(C(N)=O)ccn3)CC2)c1 [Ex. 026],62.7 nM,–,1.9 µM,–,–
N#CCOc1nc(N2CCC(C(=O)N3OCC[C@H]3c3cncc(C#N)c3)CC2)ncc1F [Ex. 028],17.3 nM,–,0.00105 µM,–,–
"N#Cc1cncc([C@@H]2CCON2C(=O)C2CCN(c3ncc(F)c(OCC(=O)O)n3)CC2)c1 [Ex. 033, 2-[2-[4-[(3S)-3-(5-Cyano-3-pyridyl)isoxazolidine-2-carbonyl]-1-piperidyl]-5-fluoro-pyrimidin-4-yl]oxyacetic acid TFA salt]",511 nM,–,> 10 µM,–,–
N#Cc1cncc([C@@H]2CCON2C(=O)C2CCN(c3ncc(F)c(OCC(N)=O)n3)CC2)c1 [Ex. 035],66.1 nM,–,0.183 µM,–,–
N#Cc1cncc([C@@H]2CCON2C(=O)C2CCN(c3ncc(F)c(N)n3)CC2)c1 [Ex. 039],50.1 nM,–,0.18 µM,–,–
Cc1cncc([C@@H]2CCON2C(=O)C2CCN(c3nccc(C(N)=O)n3)CC2)n1 [Ex. 044],–,–,–,9 nM,0.009 µM
Cc1cncc([C@@H]2CCON2C(=O)C2CCN(c3nccc(C#N)n3)CC2)n1 [Ex. 045],17.2 nM,–,0.0664 µM,–,–
Cc1cnc(N2CCC(C(=O)N3OCC[C@H]3c3cncc(C#N)c3)CC2)nc1C(N)=O [Ex. 053],11.7 nM,–,0.0561 µM,–,–
NC(=O)c1ccnc(N2CCC(C(=O)N3OCC[C@H]3c3cncc(N4CCC4=O)c3)CC2)n1 [Ex. 055],101 nM,–,0.844 µM,–,–
"N#Cc1ccnc(N2CCC(C(=O)N3OCC[C@H]3c3cncc(N4CCC4=O)c3)CC2)n1 [Ex. 056, 2-[4-[(3S)-3-[5-(2-Oxoazetidin-1-yl)-3-pyridyl]isoxazolidine-2-carbonyl]-1-piperidyl]pyrimidine-4-carbonitrile]",42.5 nM,–,2.2 µM,–,–
"CCOC(=O)c1ncnc(N2CCC(C(=O)N3OCC[C@H]3c3cncc(C#N)c3)CC2)c1F [Ex. 057, Ethyl 6-[4-[(3S)-3-(5-cyano-3-pyridyl)isoxazolidine-2-carbonyl]-1-piperidyl]-5-fluoro-pyrimidine-4-carboxylate]",30.9 nM,–,0.11 µM,–,–
N#Cc1cncc([C@@H]2CCON2C(=O)C2(F)CCN(c3ncc(F)c(C(N)=O)n3)CC2)c1 [Ex. 059],20.8 nM,–,0.0507 µM,–,–
CC1(C(=O)N2OCC[C@H]2c2cncnc2)CCN(c2nccc(C(N)=O)n2)CC1 [Ex. 061],39.1 nM,–,0.256 µM,–,–
COc1nc(N2CCC(C(=O)N3OCC[C@H]3c3cncnc3)CC2)ncc1F [Ex. 064],20.4 nM,–,0.0642 µM,–,–
N#Cc1ccnc(N2CCC(C(=O)N3OCC[C@H]3c3cncnc3)CC2)c1 [Ex. 065],65.6 nM,–,0.612 µM,–,–
N#Cc1cncc([C@@H]2CCON2C(=O)C2CCN(c3cnc(C#N)cn3)CC2)c1 [Ex. 066],35.1 nM,–,0.205 µM,–,–

SMILES,IC50 ([1]; Table 1),"IC50 ([2]; Table 2, listed as 10, read-out: U937 IC50)","IC50 [2, 3]",IC50 ([1]; Key compound table 4),"IC50 [2, 4]"
N#Cc1cncc([C@@H]2CCON2C(=O)C2CCN(c3cncc(C#N)n3)CC2)c1 [Ex. 067],84.8 nM,–,0.553 µM,–,–
N#Cc1cncc([C@@H]2CCON2C(=O)C2CCN(c3ncc(F)c(C(N)=O)n3)CC2)c1 [Ex. 068],–,–,–,11 nM,0.003 µM
N#Cc1cncc([C@@H]2CCON2C(=O)C2CCN(c3cncc(C(N)=O)n3)CC2)c1 [Ex. 71],25.6 nM,–,0.964 µM,–,–
N#Cc1cncc([C@@H]2CCON2C(=O)C2CCN(c3cnc(C(N)=O)cn3)CC2)c1 [Ex. 072],25 nM,–,0.554 µM,–,–
N#Cc1cncc([C@@H]2CCON2C(=O)C2CCN(c3ncnc(C(N)=O)c3F)CC2)c1 [Ex. 073],11 nM,–,0.103 µM,–,–
NC(=O)c1nc(N2CCC(C(=O)N3OCC[C@H]3c3cnccn3)CC2)ncc1F [Ex. 075],–,–,–,8 nM,0.003 µM
NC(=O)c1nc(N2CCC(C(=O)N3OCC[C@H]3c3cncc(F)c3)CC2)ncc1F [Ex. 080],10.3 nM,–,0.00337 µM,–,–
Cc1ncc([C@@H]2CCON2C(=O)C2CCN(c3nccc(C(N)=O)n3)CC2)cc1C#N [Ex. 081],15.7 nM,–,0.0297 µM,–,–
NC(=O)c1ccnc(N2CCC(C(=O)N3OCC[C@H]3c3ccc(Cl)cn3)CC2)n1 [Ex. 083],16.1 nM,–,0.0495 µM,–,–
Cc1ncc([C@@H]2CCON2C(=O)C2CCN(c3ncc(F)c(C(N)=O)n3)CC2)cc1C#N [Ex. 085],15.3 nM,–,0.0206 µM,–,–
Cc1cnc([C@@H]2CCON2C(=O)C2CCN(c3nccc(C(N)=O)n3)CC2)cn1 [Ex. 087],9.55 nM,–,0.0505 µM,–,–
CCOC(=O)N1CC(NC(=O)c2ccnc(N3CCC(C(=O)N4OCC[C@H]4c4cncc(C#N)c4)CC3)n2)C1 [Ex. 088],33.6 nM,–,0.158 µM,–,–
N#Cc1cncc([C@@H]2CCON2C(=O)[C@H]2CCN(c3nccc(C(N)=O)n3)C[C@@H]2F)c1 [Ex. 093],4.16 nM,–,0.0193 µM,–,–
Cc1cncc([C@@H]2CCON2C(=O)C2CCN(c3ncc(C)c(C(N)=O)n3)CC2)n1 [Ex. 097],24 nM,–,0.0415 µM,–,–
Cc1cnc(N2CCC(C(=O)N3OCC[C@H]3c3cncc(F)c3)CC2)nc1C(N)=O [Ex. 098],13.7 nM,–,0.0325 µM,–,–
Cc1cnc(N2CCC(C(=O)N3OCC[C@H]3c3cnccn3)CC2)nc1C(N)=O [Ex. 99],22.3 nM,–,0.054 µM,–,–
"CSc1nc(N2CCC(C(=O)N3OCC[C@H]3c3cncc(C#N)c3)CC2)ncc1F [Ex. 103, 5-[(3S)-2-[1-(5-Fluoro-4-methylsulfanyl-pyrimidin-2-yl)piperidine-4-carbonyl]isoxazolidin-3-yl]pyridine-3-carbonitrile]",17.5 nM,–,0.00144 µM,–,–
C[S+]([O-])c1nc(N2CCC(C(=O)N3OCC[C@H]3c3cncc(C#N)c3)CC2)ncc1F (stereo partly drawn) [Ex. 104],13.4 nM,–,0.736 µM,–,–
CS(=O)(=O)c1nc(N2CCC(C(=O)N3OCC[C@H]3c3cncc(C#N)c3)CC2)ncc1F [Ex. 105],11.2 nM,–,7.94 µM,–,–
N#Cc1ccc([C@@H]2CCON2C(=O)C2CCN(c3ncc(F)c(C(N)=O)n3)CC2)nc1 [Ex. 106],42.9 nM,–,0.548 µM,–,–
N#Cc1ccc([C@@H]2CCON2C(=O)C2CCN(c3cc(C(N)=O)ncn3)CC2)nc1 [Ex. 107],364 nM,–,7.52 µM,–,–
